Data from article PMC10079235 (PLOS Neglected Tropical Diseases, 2023).
Like-named read-outs stand apart in the source and are kept apart here.

Assays:
[1] = test system: HCT-8/MDR1(NTZ) cells; experiment: MTS cytotoxicity (drug tolerance) assay; conditions: for TC50: human, 41 h
Protocol: (§1) Host cell drug tolerance to specified inhibitors was evaluated by 3-(4,5-dimethylthiazol-2-yl)-5-(3-carboxymethoxyphenyl)-2-(4-sulfophenyl)-2H-tetrazolium (MTS) assay. WT and transgenic host cells were seeded in 96-well plates (10,000 cells/well) and cultured for 24 h, followed by the addition of specified compounds at serially diluted concentrations and continued culture for 41 h. After 3 washes with serum-free medium, MTS solution (Saint-Bio, Shanghai, China) was added into the plates (20 μL/well) and incubated at 37°C for 2 h. Optical density at 490 nm (OD490) was measured using a Synergy LX multi-mode reader (BioTek, Winooski, VT). Drug tolerance was indicated by half-maximal cytotoxic concentrations (TC50 values) calculated by nonlinear regression using 4PL model. Selectivity index (SI) for each compound was determined by the ratio between TC50 and EC50 values (SI = TC50/EC50).
(§2) Surviving cells were allowed to recover in drug-free medium for 3–5 d to near confluence (round 1). The selection/recovery cycle were repeated once (round 2). […] The resulting cell lines after PTX or NTZ selection were designated as WT(PTX), NC(PTX) and MDR1(PTX), or WT(NTZ), NC(NTZ) and MDR1(NTZ), respectively (Tables 1 and S2).

[2] = test system: HCT-8/NC(PTX) cells; experiment: MTS cytotoxicity (drug tolerance) assay; conditions: NC(PTX) cells, after selection by PTX
Protocol: as §1, §2

[3] = test system: HCT-8/WT(PTX) cells; experiment: MTS cytotoxicity (drug tolerance) assay; conditions: WT(PTX) cells, after selection by PTX
Protocol: as §1, §2

[4] = test system: HCT-8/NC cells; experiment: MTS cytotoxicity (drug tolerance) assay; conditions: no drug selection
[5] = test system: HCT-8/WT cells; experiment: MTS cytotoxicity (drug tolerance) assay; conditions: for TC50: WT cells, no drug selection, MTS assay
Protocol: as §1

[6] = test system: HCT-8/NC(NTZ) cells; experiment: MTS cytotoxicity (drug tolerance) assay; conditions: NC(NTZ) cells, after selection by NTZ
Protocol: as §1
(§3) Surviving cells were allowed to recover in drug-free medium for 3–5 d to near confluence (round 1). The selection/recovery cycle were repeated once (round 2). […] Finally, all cells were cultured at the final selection concentrations of PTX or NTZ for ≥7 d, followed by culture in drug-free medium for 14 d. At this time point, cells were used for cytotoxicity and efficacy assays or cryopreserved in a liquid nitrogen tank. The resulting cell lines after PTX or NTZ selection were designated as WT(PTX), NC(PTX) and MDR1(PTX), or WT(NTZ), NC(NTZ) and MDR1(NTZ), respectively (Tables 1 and S2).

[7] = test system: HCT-8/WT(NTZ) cells; experiment: MTS cytotoxicity (drug tolerance) assay; conditions: WT(NTZ) cells, after selection by NTZ
Protocol: as §1, §3

[8] = test system: HCT-8/MDR1(PTX) cells; conditions: for TC50: MDR1(PTX) cells, after selection by PTX
Protocol: as §1, §2

[9] = test system: Cryptosporidium parvum; experiment: Anti-cryptosporidial efficacy assay (44-h infection/qRT-PCR); conditions: for EC50: Cryptosporidium parvum; for On-target rate at EC50 / On-target (Eon) rate at EC50: Eq 2; for Action on parasite target (on-target) conclusion: MDR1-transgenic host cell model; for Eoff, proportion of off-parasite-target effect / Eon, proportion of on-parasite-target effect: Eq 3 and 4
[10] = test system: HCT-8/MDR1 cells; conditions: human, 41 h
[11] = test system: MDR1; parameters: method as in PMID 34648615; conditions: 300 nM ref 15; cited from earlier work
[12] = test system: HCT-8 cells; experiment: MTS cytotoxicity assay with MDR1 inhibitor elacridar, several HCT-8 derived cell lines; conditions: 300 nM, NC, MDR1, NC(PTX), NC(NTZ)
Protocol: If the increase of tolerance to a specified inhibitor in host cells was truly mediated by MDR1, specific inhibition of MDR1 would restore the sensitivity of the host cells to the inhibitor (as indicated by TC50). Additionally, inhibition of MDR1 would not affect the anti-cryptosporidial efficacy (EC50) if the drug that acted only on the parasite target, or partially affect the efficacy (EC50) if the drug that also acted on host cell target. This notion was tested using elacridar, a third generation of MDR1 inhibitor [18, 23–25]. […] We then examined the effect of elacridar on the cytotoxicity and anti-cryptosporidial efficacies of the six inhibitors in the range of TC50 or EC50 concentrations.
Host cell drug tolerance to specified inhibitors was evaluated by 3-(4,5-dimethylthiazol-2-yl)-5-(3-carboxymethoxyphenyl)-2-(4-sulfophenyl)-2H-tetrazolium (MTS) assay. […] Optical density at 490 nm (OD490) was measured using a Synergy LX multi-mode reader (BioTek, Winooski, VT). Drug tolerance was indicated by half-maximal cytotoxic concentrations (TC50 values) calculated by nonlinear regression using 4PL model. Selectivity index (SI) for each compound was determined by the ratio between TC50 and EC50 values (SI = TC50/EC50).

[13] = MDR1, read-out: Antiparasitic efficacy (EC50), C. parvum cultured in MDR1(PTX) host cells
[14] = read-out: Antiparasitic efficacy (EC50), C. parvum cultured in NC host cells
[15] = read-out: Antiparasitic efficacy (EC50), C. parvum cultured in WT host cells
[16] = at EC10, MDR1(NTZ) vs. NC model
[17] = at EC20, MDR1(NTZ) vs. NC model
[18] = at EC30, MDR1(NTZ) vs. NC model
[19] = at EC40, MDR1(NTZ) vs. NC model
[20] = at EC50, MDR1(NTZ) vs. NC model
[21] = at EC60, MDR1(NTZ) vs. NC model
[22] = at EC70, MDR1(NTZ) vs. NC model
[23] = at EC80, MDR1(NTZ) vs. NC model
[24] = at EC90, MDR1(NTZ) vs. NC model
[25] = at EC10, MDR1(PTX) vs. NC model
[26] = at EC20, MDR1(PTX) vs. NC model
[27] = at EC30, MDR1(PTX) vs. NC model
[28] = at EC40, MDR1(PTX) vs. NC model
[29] = at EC50, MDR1(PTX) vs. NC model
[30] = at EC60, MDR1(PTX) vs. NC model
[31] = at EC70, MDR1(PTX) vs. NC model
[32] = at EC80, MDR1(PTX) vs. NC model
[33] = at EC90, MDR1(PTX) vs. NC model

CC(=O)Oc1ccccc1C(=O)Nc1ncc([N+](=O)[O-])s1 [Nitazoxanide]
Pct change of TC50 (vs NC) ([1]; MDR1(NTZ) vs NC cells): 101.5%
TC50 [1]: 52.19 µM
TC50 [2]: 26.76 µM
TC50 [3]: 25.37 µM
TC50 [4]: 25.90 µM
TC50 [5]: 26.75 µM
Calculated cytotoxicity at EC50 ([5]; percent inhibition of WT host cell growth at the EC50 concentration, calculated with Eq 5 from k and h): 2.73%
TC50 [6]: 39.09 µM
TC50 [7]: 38.70 µM
TC50 [8]: 25.59 µM
EC50 ([9]; MDR1, read-out: Antiparasitic efficacy (EC50), C. parvum cultured in MDR1(NTZ) host cells): 1070 nM
EC50 [9, 13]: 1060 nM
EC50 [9, 14]: 1110 nM
EC50 [9, 15]: 1090 nM
Off-target rate at EC50 ([9]; MDR1(NTZ) cell model, Eq 1): -3.6%
On-target rate at EC50 ([9]; MDR1(NTZ) cell model): 103.6%
On-target rate at EC50 ([9]; MDR1(NTZ) cell model, listed as NTZ): 103.6%
Action on parasite target (on-target) conclusion [9]: 100% on-target
Eoff, proportion of off-parasite-target effect [9, 16]: -7.90%
Eon, proportion of on-parasite-target effect [9, 16]: 107.90%
Eoff, proportion of off-parasite-target effect [9, 17]: -6.10%
Eon, proportion of on-parasite-target effect [9, 17]: 106.10%
Eoff, proportion of off-parasite-target effect [9, 18]: -5.10%
Eon, proportion of on-parasite-target effect [9, 18]: 105.10%
Eoff, proportion of off-parasite-target effect [9, 19]: -4.30%
Eon, proportion of on-parasite-target effect [9, 19]: 104.30%
Eoff, proportion of off-parasite-target effect [9, 20]: −3.6%
Eon, proportion of on-parasite-target effect [9, 20]: 103.6%
Eoff, proportion of off-parasite-target effect [9, 21]: -2.90%
Eon, proportion of on-parasite-target effect [9, 21]: 102.90%
Eoff, proportion of off-parasite-target effect [9, 22]: -2.30%
Eon, proportion of on-parasite-target effect [9, 22]: 102.30%
Eoff, proportion of off-parasite-target effect [9, 23]: -1.50%
Eon, proportion of on-parasite-target effect [9, 23]: 101.50%
Eoff, proportion of off-parasite-target effect [9, 24]: -0.50%
Eon, proportion of on-parasite-target effect [9, 24]: 100.50%
TC50 [10]: 25.28 µM

CC[C@]1(O)C[C@H]2CN(CCc3c([nH]c4ccccc34)[C@@](C(=O)OC)(c3cc4c(cc3OC)N(C=O)[C@H]3[C@@](O)(C(=O)OC)[C@H](OC(C)=O)[C@]5(CC)C=CCN6CC[C@]43[C@@H]65)C2)C1 [Vincristine, Vincristine sulphate]
TC50 [1]: 12.38 µM
TC50 [2]: 7.29 µM
TC50 [3]: 6.96 µM
TC50 [4]: 7.15 µM
TC50 [5]: 6.72 µM
TC50 [6]: 6.87 µM
TC50 [7]: 7.04 µM
TC50 [8]: 21.51 µM
Pct change of TC50 (vs NC) ([8]; MDR1(PTX) vs NC cells): 200.8%
EC50 [9, 13]: 2770 nM
EC50 [9, 14]: 1580 nM
EC50 [9, 15]: 1640 nM
On-target (Eon) rate at EC50 ([9]; MDR1(PTX) cell model): 62.5%
On-target (Eon) rate at EC50 ([9]; MDR1(PTX) cell model, listed as VCT): 62.5%
Off-target (Eoff) rate at EC50 ([9]; MDR1(PTX) cell model, from Pct changes of EC50 and TC50 (Eq 1)): 37.5%
Action on parasite target (on-target) conclusion [9]: partially on-target
Eoff, proportion of off-parasite-target effect [9, 25]: 38.10%
Eon, proportion of on-parasite-target effect [9, 25]: 61.90%
Eon, proportion of on-parasite-target effect ([9]; at EC10, MDR1(PTX) vs. NC model, listed as VCT): 61.9%
Eoff, proportion of off-parasite-target effect [9, 26]: 38.00%
Eon, proportion of on-parasite-target effect [9, 26]: 62.00%
Eoff, proportion of off-parasite-target effect [9, 27]: 37.90%
Eon, proportion of on-parasite-target effect [9, 27]: 62.10%
Eoff, proportion of off-parasite-target effect [9, 28]: 37.80%
Eon, proportion of on-parasite-target effect [9, 28]: 62.20%
Eoff, proportion of off-parasite-target effect [9, 29]: 37.7%
Eon, proportion of on-parasite-target effect [9, 29]: 62.3%
Eoff, proportion of off-parasite-target effect [9, 30]: 37.60%
Eon, proportion of on-parasite-target effect [9, 30]: 62.40%
Eoff, proportion of off-parasite-target effect [9, 31]: 37.50%
Eon, proportion of on-parasite-target effect [9, 31]: 62.50%
Eoff, proportion of off-parasite-target effect [9, 32]: 37.30%
Eon, proportion of on-parasite-target effect [9, 32]: 62.70%
Eoff, proportion of off-parasite-target effect [9, 33]: 37.10%
Eon, proportion of on-parasite-target effect [9, 33]: 62.90%
Eon, proportion of on-parasite-target effect ([9]; at EC90, MDR1(PTX) vs. NC model, listed as VCT): 62.9%
TC50 [10]: 12.61 µM

COc1cc2c(cc1OC)CN(CCc1ccc(NC(=O)c3cccc4c(=O)c5cccc(OC)c5[nH]c34)cc1)CC2 [elacridar]
Inhibition on the activity of MDR1 [11]: strong inhibition
Effect on growth of host cells [12]: no or little effect
Effect on growth of C. parvum ([9]; 300 nM, cultured with NC, MDR1(PTX) and MDR1(NTZ) cells): no or little effect
